Experiments:
Test in all cases: relative viability (nuclei count vs DMSO), 5 days (fraction); higher = more cells survive
[1] = compound: CN(c1ncccc1CNc1nc(Nc2ccc3c(c2)CC(=O)N3)ncc1C(F)(F)F)S(C)(=O)=O + CCNC(=O)c1noc(-c2cc(C(C)C)c(O)cc2O)c1-c1ccc(CN2CCOCC2)cc1 [Luminespib] (partner 0.01 µM)
Outline: (§1)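 Lung cancer cell lines, seeded in 1536-well plates, were treated the following day by pin tool with a single drug or with five library-drug doses (not always all listed) in √10 steps on top of a fixed anchor-drug dose. Cells were fixed and nuclei stained in one step after 5 days, and nuclei were counted. Relative viability is the nuclei count for treated wells divided by that for vehicle wells, reported as medians of duplicate plates.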

[2] = compound: CN(c1ncccc1CNc1nc(Nc2ccc3c(c2)CC(=O)N3)ncc1C(F)(F)F)S(C)(=O)=O + CC(C)C[C@H](NC(=O)[C@H](Cc1ccccc1)NC(=O)c1cnccn1)B(O)O [Bortezomib] (partner 0.002 µM)
Outline: as §1

[3] = compound: CN(c1ncccc1CNc1nc(Nc2ccc3c(c2)CC(=O)N3)ncc1C(F)(F)F)S(C)(=O)=O + Cc1nc(Nc2ncc(C(=O)Nc3c(C)cccc3Cl)s2)cc(N2CCN(CCO)CC2)n1 [Dasatinib] (partner 0.075 µM)
Outline: as §1

[4] = compound: CN(c1ncccc1CNc1nc(Nc2ccc3c(c2)CC(=O)N3)ncc1C(F)(F)F)S(C)(=O)=O + CC(=O)c1c(C)c2cnc(Nc3ccc(N4CCNCC4)cn3)nc2n(C2CCCC2)c1=O [Palbociclib] (partner 0.5 µM)
Outline: as §1

Cell Line	relative viability ([1]; first compound 0.01 µM)	relative viability ([1]; first compound 0.03162 µM)	relative viability ([1]; first compound 0.1 µM)	relative viability ([1]; first compound 0.3162 µM)	relative viability ([1]; first compound 1 µM)	relative viability ([2]; first compound 0.01 µM)	relative viability ([2]; first compound 0.03162 µM)	relative viability ([2]; first compound 0.1 µM)	relative viability ([2]; first compound 0.3162 µM)	relative viability ([2]; first compound 1 µM)	relative viability ([3]; first compound 0.01 µM)	relative viability ([3]; first compound 0.03162 µM)	relative viability ([3]; first compound 0.1 µM)	relative viability ([3]; first compound 0.3162 µM)	relative viability ([3]; first compound 1 µM)	relative viability ([4]; first compound 0.01 µM)	relative viability ([4]; first compound 0.03162 µM)	relative viability ([4]; first compound 0.1 µM)	relative viability ([4]; first compound 0.3162 µM)	relative viability ([4]; first compound 1 µM)
NCI-H661	0.854	0.928	0.837	0.871	0.876	0.928	1.06	0.717	0.837	1.04	0.973	0.809	0.885	0.782	0.83	0.406	0.385	0.429	0.383	0.341
NCI-H1993	0.859	0.849	0.752	0.755	0.65	0.993	1.22	1.11	1.04	0.907	0.601	0.48	0.506	0.78	0.593	0.479	0.64	0.669	0.652	0.597
NCI-H1437	1.14	1.16	1.12	0.993	0.687	0.612	0.462	0.527	0.514	0.405	0.401	0.391	0.426	0.204	0.427	0.348	0.297	0.265	0.269	0.209
UMC-11	0.928	0.998	0.97	1.11	0.924	0.795	0.634	0.649	0.589	0.672	0.449	0.531	0.41	0.426	0.379	0.316	0.346	0.394	0.317	0.34
201T	1.05	1	0.945	0.986	0.951	1.1	1.09	1.04	1.01	1.08	0.602	0.55	0.45	0.538	0.517	0.35	0.348	0.354	0.343	0.323
ChaGo-K-1	0.479	0.629	0.635	0.706	0.556	1.01	0.803	1.11		1.09	0.656	0.531	0.52	0.614	0.531	0.942	0.955	0.917	0.785	0.877
NCI-H1650	0.203	0.207	0.194	0.193	0.198	0.229	0.196	0.232		0.192	0.303	0.367	0.339	0.303	0.327	0.291	0.31	0.367	0.321	0.304
LOU-NH91	0.322	0.366	0.313	0.351	0.355	0.497	0.47	0.482	0.482	0.459	0.56	0.526	0.491	0.501	0.448	0.521	0.512	0.534	0.52	0.492

From the supplement of paper PMC10307832
